These results are taken from US11716992B2, “5A5B6C tricyclic spirolactone derivative, preparation method therefor and use thereof” (NANKAI UNIVERSITY, priority 2017, dated 2023).

The subject of data set [1] is Ostrinia furnacalis. Description: Insecticidal activity against Ostrinia furnacalis. Type of data set: in vivo. The settings on record: Ostrinia furnacalis; 100 μg/mL; read-out: insecticidal activity, Ostrinia furnacalis.
In data set [2] the test system is Botrytis cinerea. Kind of data set: Fungicidal activity, fungicide growth rate method, BC. Type of data set: cell-based. The settings on record: Botrytis cinerea, 50 μg/mL; read-out: fungicidal activity (growth inhibition rate), BC.
Data set [3] deals with Helicoverpa armigera (Hübner). Kind of data set: Insecticidal activity against Helicoverpa armigera (Hübner). In kind it is in vivo. The settings on record: Helicoverpa armigera; 100 μg/mL; read-out: insecticidal activity, Helicoverpa armigera (Hübner).
For data set [4], the system named is wheat Gibberella zeae. Description: microbe, parasite or virus in culture. Type of data set: cell-based. As to conditions: Fusarium graminearum, read-out: fungicidal activity (growth inhibition rate), GZ, 50 μg/mL.
Data set [5] has as its system Rhizoctonia cerealis. Kind of data set: Fungicidal activity, fungicide growth rate method, RC. Type of data set: cell-based. The settings on record: Ceratobasidium cereale, 50 μg/mL; read-out: fungicidal activity (growth inhibition rate), RC.
The subject of data set [6] is Mythimna separate (Walker). Description: Insecticidal activity against Mythimna separate (Walker). In kind it is in vivo. The settings on record: Mythimna, 100 μg/mL; read-out: insecticidal activity, Mythimna separate (Walker).
Data set [7] deals with Alternaria solani. Kind of data set: Fungicidal activity, fungicide growth rate method, AS. Type of data set: cell-based. The settings on record: Alternaria solani, 50 μg/mL; read-out: fungicidal activity (growth inhibition rate), AS.
Data set [8] concerns Pellicularia sasakii. Description: Fungicidal activity, fungicide growth rate method, PS. In kind it is cell-based. As to conditions: 50 μg/mL; read-out: fungicidal activity (growth inhibition rate), PS.
In data set [9] the test system is Phytophthora infestans (Mont.) de Bary. Description: microbe, parasite or virus in culture. Type of data set: cell-based. As to conditions: Phytophthora infestans, read-out: fungicidal activity (growth inhibition rate), PI, 50 μg/mL.
The test system of data set [10] is Physalospora piricola. Kind of data set: Fungicidal activity, fungicide growth rate method, PP. Type of data set: cell-based. As to conditions: 50 μg/mL; read-out: fungicidal activity (growth inhibition rate), PP.
Data set [11] has as its system Cercospora arachidicola. Kind of data set: Fungicidal activity, fungicide growth rate method, CA. Type of data set: cell-based. The settings on record: Mycosphaerella arachidis, 50 μg/mL; read-out: fungicidal activity (growth inhibition rate), CA.
For data set [12], the system named is Sclerotinia sclerotiorum. Description: Fungicidal activity, fungicide growth rate method, SS. Type of data set: cell-based. As to conditions: Sclerotinia sclerotiorum, 50 μg/mL.
For data set [13], the system named is Caenorhabditis elegans. Kind of data set: Insecticidal activity against Caenorhabditis elegans. Type of data set: in vivo. As to conditions: Caenorhabditis elegans, 100 μg/mL; read-out: insecticidal activity, Caenorhabditis elegans.
Data set [14] deals with Tobacco Mosaic Virus. Kind of data set: Anti-TMV inactivation activity on tobacco plants. Type of data set: in vivo. As to conditions: compound mixed with TMV solution 30 minutes, lesions checked three days later.

For orientation: melting point means the temperature, or range, at which the solid turns liquid. With `C=CC[C@@H]1C[C@]2(O)CCO[C@@]23C[C@@H](O)[C@H](Cl)C[C@H]13` [Zyj07-101], the melting point was 143 to 144 °C. For the same compound, in [1], the pest or weed control at 100 µg/mL was 15%. For the same compound, in data set [2], the inhibition at 50 µg/mL was > 50%. In addition, in data set [3], the pest or weed control at 100 µg/mL was determined as 20%. In addition, in data set [4], the inhibition at 50 µg/mL worked out at 3%. In data set [5], the inhibition at 50 µg/mL is 29%. In data set [6], the pest or weed control at 100 µg/mL is > 30%. Further, the inhibition at 50 µg/mL in [7] is 5%. Besides, in data set [8], the inhibition at 50 µg/mL is 0%. The inhibition at 50 µg/mL in data set [9] was > 60%. Also, in data set [10], the inhibition at 50 µg/mL was > 50%. Besides, the inhibition at 50 µg/mL in data set [11] was found to be 14%.
As to `C=CC[C@@H]1C[C@@]2(OC(C)=O)C[C@@H](CC=C)[C@H]3C[C@@H]4O[C@@H]4C[C@@]32O1` [Zyj07-67-2], the melting point is 100 to 102 °C. Also, the pest or weed control at 100 µg/mL in data set [1] was 0%. Also, the inhibition at 50 µg/mL in data set [12] is > 50%. Moreover, the inhibition at 50 µg/mL in data set [2] is > 50%. Further, in data set [3], the pest or weed control at 100 µg/mL was found to be 0%. Further, the inhibition at 50 µg/mL in data set [4] was 0%. Further, the inhibition at 50 µg/mL in [5] came to 29%. In addition, the pest or weed control at 100 µg/mL in [13] is 20%. Further, the pest or weed control at 100 µg/mL in [6] was found to be 0%. The inhibition at 50 µg/mL in [7] came out at 0%. Moreover, the inhibition at 50 µg/mL in data set [8] was determined as 36%. The “TMV inactivation (anti-TMV activity)” value in data set [14] was found to be 29%. Also, in data set [9], the inhibition at 50 µg/mL worked out at 25%. Moreover, the inhibition at 50 µg/mL in data set [10] is 13%. For the same compound, in [11], the inhibition at 50 µg/mL was determined as 24%.
The compound `C=CC[C@@H]1C[C@]2(O)CCO[C@@]23C[C@@H](Cl)[C@H](O)C[C@H]13` [Zyj07-100] had a melting point of 134 to 136 °C. For the same compound, the pest or weed control at 100 µg/mL in [1] came to 0%. Besides, in data set [2], the inhibition at 50 µg/mL is 14%. Also, the pest or weed control at 100 µg/mL in data set [3] worked out at 0%. Further, in data set [4], the inhibition at 50 µg/mL came to 13%. In addition, in data set [5], the inhibition at 50 µg/mL was 0%. In addition, the pest or weed control at 100 µg/mL in data set [6] came out at 10%. Moreover, the inhibition at 50 µg/mL in data set [7] is 14%. The inhibition at 50 µg/mL in [8] came to 23%. In addition, the inhibition at 50 µg/mL in data set [9] came to 38%. Moreover, in data set [10], the inhibition at 50 µg/mL was 29%. In addition, in [11], the inhibition at 50 µg/mL amounted to 46%.
The compound `O=C1C[C@@]2(O)CC[C@H]3C[C@@H]4O[C@@H]4C[C@@]32O1` [Zyj07-102] showed a melting point of 119 to 120 °C. Moreover, the pest or weed control at 100 µg/mL in data set [1] turned out to be 0%. The inhibition at 50 µg/mL in [12] came to 0%. Further, the inhibition at 50 µg/mL in [2] turned out to be 41%. The pest or weed control at 100 µg/mL in data set [3] was 0%. For the same compound, the inhibition at 50 µg/mL in [4] was 27%. Moreover, the inhibition at 50 µg/mL in [5] came out at 0%. Also, the pest or weed control at 100 µg/mL in data set [6] amounted to 0%. Further, the inhibition at 50 µg/mL in data set [7] was found to be 0%. For the same compound, in data set [8], the inhibition at 50 µg/mL came out at 0%. For the same compound, the “TMV inactivation (anti-TMV activity)” value in data set [14] is given as 14%. For the same compound, in data set [9], the inhibition at 50 µg/mL worked out at 23%. The inhibition at 50 µg/mL in [10] worked out at 42%. Further, the inhibition at 50 µg/mL in [11] is 14%.
